Assay results reported in BindingDB's records for patent WO2022093820 (GENENTECH, INC., 2022).

Biological target: Phosphatidylinositol 3-kinase catalytic subunit type 3 (Homo sapiens, UniProt Q8NEB9)
Assay: VPS34 ADP-Glo kinase assay
Protocol: Experimental compound in DMSO was dispensed to a 384-well microplate via acoustic dispenser at 50 nl per well. […] Assay buffer conditions were as follows: 50 mM HEPES, pH 7.5, 3 mM MnCl2, 0.01% BSA, 0.01% Brij 35, 1 mM TCEP. The 5 µl reaction was incubated for 90 minutes at room temperature, and then quenched with equal volume of ADP-Glo Reagent (5 µl; Promega). Quenched reaction was incubated for 60 min, followed by addition of an equal volume of Kinase Detection Reagent (10 µl; Promega). Luminescence signal was detected on an Envision (Perkin Elmer).

Phosphatidylinositol 3-kinase catalytic subunit type 3, sequence (Q8NEB9 whole entry): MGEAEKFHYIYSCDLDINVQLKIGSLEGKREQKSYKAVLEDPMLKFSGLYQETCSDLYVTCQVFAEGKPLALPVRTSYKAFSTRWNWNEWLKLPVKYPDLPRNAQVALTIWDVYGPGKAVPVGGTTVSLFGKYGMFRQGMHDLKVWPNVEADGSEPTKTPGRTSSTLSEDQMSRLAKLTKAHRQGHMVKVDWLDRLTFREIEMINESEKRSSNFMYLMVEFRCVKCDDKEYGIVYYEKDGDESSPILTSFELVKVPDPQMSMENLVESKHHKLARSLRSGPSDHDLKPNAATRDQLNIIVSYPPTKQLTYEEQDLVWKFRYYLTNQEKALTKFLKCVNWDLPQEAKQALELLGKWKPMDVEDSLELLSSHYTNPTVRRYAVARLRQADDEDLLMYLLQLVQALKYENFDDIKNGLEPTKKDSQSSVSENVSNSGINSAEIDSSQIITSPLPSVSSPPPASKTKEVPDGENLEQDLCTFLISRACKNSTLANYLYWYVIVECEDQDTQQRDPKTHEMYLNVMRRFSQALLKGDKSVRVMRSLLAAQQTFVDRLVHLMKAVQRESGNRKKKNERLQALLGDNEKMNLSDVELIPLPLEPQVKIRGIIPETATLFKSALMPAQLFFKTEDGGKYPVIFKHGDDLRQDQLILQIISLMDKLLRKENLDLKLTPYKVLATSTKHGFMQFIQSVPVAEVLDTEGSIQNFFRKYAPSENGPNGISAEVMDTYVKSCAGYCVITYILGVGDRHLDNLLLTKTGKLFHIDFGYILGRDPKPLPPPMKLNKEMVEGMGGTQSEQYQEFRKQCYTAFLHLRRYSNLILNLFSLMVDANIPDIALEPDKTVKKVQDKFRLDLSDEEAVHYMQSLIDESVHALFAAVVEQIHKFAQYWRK

Row | Structure (SMILES) | IC50 [µM]
1 | C[C@@H]1COCCN1c1cc2n(n1)[C@@](C)(C1CCC1)CNC2=O [WO2022093820, Compound 45] | 0.26
2 | CC(C)C1(CO)CNC(=O)c2cc(N3CCOC[C@H]3C)nn21 (stereo partly specified) [WO2022093820, Compound 50] | 0.847
3 | CC(C)[C@@]1(C)CNC(=O)c2cc(N3CCOC[C@H]3C)nn21 [WO2022093820, Compound 26] | 2.17
4 | C[C@@H]1COCCN1c1cc2n(n1)[C@@H](C1(c3ccccc3)CC1)CNC2=O [WO2022093820, Compound 49] | 35
5 | C[C@H](c1ccccc1)C1CNC(=O)c2cc(N3CCOC[C@H]3C)nn21 (stereo partly specified) [WO2022093820, Compound 55] | 50
6 | C[C@@H]1COCCN1c1cc2n(n1)[C@@](C)(C1CC1)CNC2=O [WO2022093820, Compound 24] | 1.34
7 | C[C@@H]1COCCN1c1cc2n(n1)[C@H](C1(C)CC1)CNC2=O [WO2022093820, Compound 11] | 0.056
8 | C[C@@H]1COCCN1c1cc2n(n1)[C@](C)(C1CC1)C1(CC1)NC2=O [WO2022093820, Compound 29] | 0.027
9 | C[C@@H]1COCCN1c1cc2n(n1)[C@H]([C@@H](C)CO)CNC2=O [WO2022093820, Compound 68] | 27.3
10 | CC(C)C[C@H]1CNC(=O)c2cc(N3CCOC[C@H]3C)nn21 [WO2022093820, Compound 62] | 0.739
11 | COC[C@@]1(C(C)C)CNC(=O)c2cc(N3CCOC[C@H]3C)nn21 [WO2022093820, Compound 53] | 36.2
12 | CC[C@@]1(C2CC2)CNC(=O)c2cc(N3CCOC[C@H]3C)nn21 [WO2022093820, Compound 27] | 0.032
13 | C[C@@H]1COCCN1c1cc2n(n1)[C@@H](C(F)(F)C(F)(F)F)CNC2=O [WO2022093820, Compound 16] | 50
14 | C[C@@H]1COCCN1c1cc2n(n1)C[C@@H](CC(F)(F)F)NC2=O [WO2022093820, Compound 52] | 24.7
15 | C[C@@H]1COCCN1c1cc2n(n1)C([C@@H](C)CO)CNC2=O (stereo partly specified) [WO2022093820, Compound 69] | 0.784
16 | C[C@@H]1COCCN1c1cc2n(n1)[C@@](C)(C1CC1)C1(CC1)NC2=O [WO2022093820, Compound 30] | 1.75
17 | C[C@H](CO)[C@@H]1CNC(=O)c2cc(N3CCOC[C@H]3C)nn21 [WO2022093820, Compound 67] | 32.4
18 | C[C@@H]1COCCN1c1cc2n(n1)[C@H](C1(c3ccccc3)CC1)CNC2=O [WO2022093820, Compound 48] | 0.1
19 | C[C@@H]1COCCN1c1cc2n(n1)C([C@@H](C)c1ccccc1)CNC2=O (stereo partly specified) [WO2022093820, Compound 56] | 0.119
20 | C[C@@H]1COCCN1c1cc2n(n1)[C@H](C(F)(F)C(F)(F)F)CNC2=O [WO2022093820, Compound 15] | 0.052
21 | C[C@@H]1COCCN1c1cc2n(n1)[C@H]([C@@H](C)c1ccccc1)CNC2=O [WO2022093820, Compound 58] | 0.388

Row | Structure (SMILES) | IC50 [µM]
22 | C[C@@H]1COCCN1c1cc2n(n1)[C@](C)(C1CCC1)CNC2=O [WO2022093820, Compound 44] | 4
23 | CC(C)C[C@@H]1CNC(=O)c2cc(N3CCOC[C@H]3C)nn21 [WO2022093820, Compound 61] | 12.8
24 | C[C@H](c1ccccc1)[C@@H]1CNC(=O)c2cc(N3CCOC[C@H]3C)nn21 [WO2022093820, Compound 57] | 50
25 | C[C@@H]1COCCN1c1cc2n(n1)[C@@H]1CCC(C)(C)[C@@H]1NC2=O [WO2022093820, Compound 41] | 0.051
26 | C[C@@H]1COCCN1c1cc2n(n1)[C@@H](C1(C)CC1)CNC2=O [WO2022093820, Compound 12] | 3.35
27 | CC[C@H]1CNC(=O)c2cc(N3CCOC[C@H]3C)nn21 [WO2022093820, Compound 47] | 0.747
28 | CC(C)[C@]1(C)CNC(=O)c2cc(N3CCOC[C@H]3C)nn21 [WO2022093820, Compound 25] | 0.09
29 | C[C@@H]1COCCN1c1cc2n(n1)[C@](C)(C1CC1)CNC2=O [WO2022093820, Compound 23] | 0.041
30 | C[C@H](CO)C1CNC(=O)c2cc(N3CCOC[C@H]3C)nn21 (stereo partly specified) [WO2022093820, Compound 70] | 0.532
31 | CC[C@@H]1CNC(=O)c2cc(N3CCOC[C@H]3C)nn21 [WO2022093820, Compound 46] | 12.8
32 | C[C@@H]1COCCN1c1cc2n(n1)[C@@H](CC(F)(F)F)CNC2=O [WO2022093820, Compound 60] | 0.429
33 | C[C@@H]1COCCN1c1cc2n(n1)C[C@H](CC(F)(F)F)NC2=O [WO2022093820, Compound 51] | 0.682
34 | CC[C@]1(C2CC2)CNC(=O)c2cc(N3CCOC[C@H]3C)nn21 [WO2022093820, Compound 28] | 1.3
35 | CC[C@@H](C)C[C@H]1CNC(=O)c2cc(N3CCOC[C@H]3C)nn21 [WO2022093820, Compound 64] | 33.6
36 | C[C@@H]1COCCN1c1cc2n(n1)C(C)(C)CNC2=O [WO2022093820, Compound 71] | 0.919
37 | C[C@@H]1COCCN1c1cc2n(n1)[C@H](CC(F)(F)F)CNC2=O [WO2022093820, Compound 59] | 36
38 | COC[C@]1(C(C)C)CNC(=O)c2cc(N3CCOC[C@H]3C)nn21 [WO2022093820, Compound 54] | 0.563
39 | CC[C@H](C)C[C@@H]1CNC(=O)c2cc(N3CCOC[C@H]3C)nn21 [WO2022093820, Compound 65] | 0.109
40 | CC(C)[C@H]1n2nc(N3CCOC[C@H]3C)cc2C(=O)NC12CC2 [WO2022093820, Compound 33] | 0.024
41 | CC(C)[C@@H]1n2nc(N3CCOC[C@H]3C)cc2C(=O)NC12CC2 [WO2022093820, Compound 34] | 21
